Laboratory results: BindingDB's records for doi:10.1111/cbdd.12822 (Wuhan University of Technology, 2016)

How the values were obtained:
Acetylcholinesterase = Acetylcholinesterase (Electrophorus electricus, UniProt O42275); experiment: AChE and BuChE Inhibition Assay; details: pH 8; 25 °C
Description: (§1) This spectrophotometric assay is based on the reaction of 5,5-dithio-bis(2-nitrobenzoic)acid (DTNB) with thiocholine to yield a colored product. Shimadzu (Kyoto, Japan) UV-1700 UV-vis spectrophotometer was used to record the measurements. The enzyme solutions were prepared at 2.5 units/mL concentrationin 1% gelatin solution. BChE/AChE and compound solutions (50 μL each) in 2% DMSO at 10^-1-10^-6 mM concentration were added to 3 mL phosphate buffer (pH 8 &plusnm; 0.1)followed by incubation for 5 min at 25 °C. The reaction was commenced by the addition of acetylthiocholine iodide (ATC) (10 μL) and DTNB (50 μL) to the enzyme-inhibitor mixture. […] The blank reading contained 10 μL substrate, 50 μL DTNB, 50 μL (2%) DMSO, and 3 mL buffer. The reaction was performed in triplicate.

[1] = molecular target: Carboxylic ester hydrolase (Equus caballus, UniProt Q9N1N9); experiment: AChE and BuChE Inhibition Assay; details: pH 8; 25 °C
Description: as §1

[2] = molecular target: T1, Amine oxidase [flavin-containing] A (Rattus norvegicus, UniProt P21396); experiment: Monoamine Oxidase Assay; details: pH 7.4; 38 °C
T1 sequence (P21396 whole entry): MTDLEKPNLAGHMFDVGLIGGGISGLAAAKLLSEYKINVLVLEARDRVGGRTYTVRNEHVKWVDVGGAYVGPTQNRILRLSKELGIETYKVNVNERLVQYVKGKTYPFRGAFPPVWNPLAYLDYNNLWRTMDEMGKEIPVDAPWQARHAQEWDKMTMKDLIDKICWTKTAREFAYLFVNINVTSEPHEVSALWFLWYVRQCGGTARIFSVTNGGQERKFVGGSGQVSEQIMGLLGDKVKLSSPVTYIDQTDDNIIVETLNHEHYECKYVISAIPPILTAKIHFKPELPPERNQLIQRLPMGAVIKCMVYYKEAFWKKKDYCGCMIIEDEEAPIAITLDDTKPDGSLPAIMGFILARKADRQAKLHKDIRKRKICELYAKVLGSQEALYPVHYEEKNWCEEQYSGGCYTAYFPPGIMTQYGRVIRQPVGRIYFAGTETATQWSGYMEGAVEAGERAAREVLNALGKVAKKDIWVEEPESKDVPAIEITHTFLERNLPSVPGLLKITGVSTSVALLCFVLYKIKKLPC

[3] = molecular target: T2, Amine oxidase [flavin-containing] B (Rattus norvegicus, UniProt P19643); experiment: Monoamine Oxidase Assay; details: pH 7.4; 38 °C
T2 sequence (P19643 whole entry): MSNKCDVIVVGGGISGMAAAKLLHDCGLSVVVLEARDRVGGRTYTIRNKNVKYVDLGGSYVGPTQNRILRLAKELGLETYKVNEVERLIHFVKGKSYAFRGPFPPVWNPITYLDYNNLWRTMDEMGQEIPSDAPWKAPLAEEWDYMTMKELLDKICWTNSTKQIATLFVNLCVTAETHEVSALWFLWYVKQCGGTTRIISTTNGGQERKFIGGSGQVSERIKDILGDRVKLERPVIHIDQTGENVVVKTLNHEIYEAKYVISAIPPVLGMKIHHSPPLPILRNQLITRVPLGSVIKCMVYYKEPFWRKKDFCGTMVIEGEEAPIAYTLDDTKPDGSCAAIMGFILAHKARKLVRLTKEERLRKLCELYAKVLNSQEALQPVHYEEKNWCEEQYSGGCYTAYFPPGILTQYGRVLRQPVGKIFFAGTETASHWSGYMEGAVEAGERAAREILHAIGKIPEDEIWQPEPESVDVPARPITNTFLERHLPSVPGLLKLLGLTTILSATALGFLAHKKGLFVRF

Acetylcholinesterase, sequence (O42275 whole entry): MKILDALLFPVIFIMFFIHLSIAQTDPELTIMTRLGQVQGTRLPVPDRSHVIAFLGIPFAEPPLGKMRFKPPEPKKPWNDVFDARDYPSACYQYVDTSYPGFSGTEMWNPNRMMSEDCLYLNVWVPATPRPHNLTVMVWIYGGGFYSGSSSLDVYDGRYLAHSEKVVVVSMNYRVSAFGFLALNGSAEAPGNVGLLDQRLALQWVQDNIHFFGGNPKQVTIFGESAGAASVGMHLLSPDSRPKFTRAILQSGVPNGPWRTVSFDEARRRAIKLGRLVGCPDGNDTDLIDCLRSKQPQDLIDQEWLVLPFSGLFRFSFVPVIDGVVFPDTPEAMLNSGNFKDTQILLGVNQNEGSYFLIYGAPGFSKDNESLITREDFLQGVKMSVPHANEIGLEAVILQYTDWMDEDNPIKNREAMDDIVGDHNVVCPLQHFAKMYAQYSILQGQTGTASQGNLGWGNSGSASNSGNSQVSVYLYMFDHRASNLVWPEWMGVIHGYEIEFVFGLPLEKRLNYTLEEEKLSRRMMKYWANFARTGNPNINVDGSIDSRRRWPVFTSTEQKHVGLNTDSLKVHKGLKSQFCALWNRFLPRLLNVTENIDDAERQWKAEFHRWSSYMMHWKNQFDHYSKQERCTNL
Carboxylic ester hydrolase, sequence (Q9N1N9 whole entry): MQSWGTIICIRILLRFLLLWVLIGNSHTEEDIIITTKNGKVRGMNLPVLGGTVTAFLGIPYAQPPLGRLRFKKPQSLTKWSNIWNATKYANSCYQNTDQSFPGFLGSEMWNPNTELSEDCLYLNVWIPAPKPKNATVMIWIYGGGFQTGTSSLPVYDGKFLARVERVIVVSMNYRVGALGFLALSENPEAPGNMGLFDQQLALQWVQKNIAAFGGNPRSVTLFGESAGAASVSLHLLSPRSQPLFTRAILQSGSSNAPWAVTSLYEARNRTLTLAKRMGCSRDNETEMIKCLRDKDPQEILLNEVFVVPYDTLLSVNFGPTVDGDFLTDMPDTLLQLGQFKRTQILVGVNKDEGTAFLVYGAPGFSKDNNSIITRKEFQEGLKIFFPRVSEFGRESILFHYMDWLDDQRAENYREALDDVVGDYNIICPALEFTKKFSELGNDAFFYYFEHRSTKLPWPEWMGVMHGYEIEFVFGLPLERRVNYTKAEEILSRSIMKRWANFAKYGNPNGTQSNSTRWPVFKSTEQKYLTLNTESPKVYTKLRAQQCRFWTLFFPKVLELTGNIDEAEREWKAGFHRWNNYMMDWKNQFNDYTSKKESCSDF

Compound	IC50 (Acetylcholinesterase) [µM]	IC50 [1] [µM]	IC50 [2] [µM]	IC50 [3] [µM]
COc1cc(/C=C2\CC(C)c3ccccc3C2=O)c(Br)c(OC)c1OC (stereo not given) [2-(2-Bromo-3,4,5-trimethoxy-benzylidene)-4-methyl-tetralone (3f)]	0.045	12.5	0.92	0.88
COc1ccc(OC)c2c1CC/C(=C\c1cc(OC)c(OC)c(OC)c1Br)C2=O [2-(2-Bromo-3,4,5-trimethoxy-benzylidene)-5,8-dimethoxy-tetralone (3x)]	0.27	9.8	> 100	> 100
COc1ccc2c(c1)CC/C(=C\c1cc(OC)c(OC)c(OC)c1Br)C2=O [2-(2-Bromo-3,4,5-trimethoxy-benzylidene)-6-methoxy-tetralone (3o)]	1.2	17.5	32.2	12.4
COc1cc(/C=C2\CCc3ccc([N+](=O)[O-])cc3C2=O)c(Br)c(OC)c1OC [2-(2-Bromo-3,4,5-trimethoxy-benzylidene)-7-nitro-tetralone (3ag)]	0.57	6.2	0.99	0.91
COc1ccc(/C=C2\CCc3ccc([N+](=O)[O-])cc3C2=O)c(Cl)c1OC [2-(2-Chloro-3,4-dimethoxy-benzylidene)-7-nitro-tetralone (3af)]	2.92	17.5	1.24	2.9
COc1cc(/C=C2\CCc3ccccc3C2=O)c(Br)c(OC)c1OC [(2E)-2-[(2-bromo-3,4,5-trimethoxyphenyl)methylidene]-1,2,3,4-tetrahydronaphthalen-1-one (3c)]	12.4	> 100	27.3	5.6
COc1cc(/C=C2\CCc3c(O)cccc3C2=O)c(Br)c(OC)c1OC [(2E)-2-[(2-bromo-3,4,5-trimethoxyphenyl)methylidene]-5-hydroxy-1,2,3,4-tetrahydronaphthalen-1-one (3i)]	> 100	76.9	> 100	37.2
COc1cccc2c1CC/C(=C\c1cc(OC)c(OC)c(OC)c1Br)C2=O [(2E)-2-[(2-bromo-3,4,5-trimethoxyphenyl)methylidene]-5-methoxy-1,2,3,4-tetrahydronaphthalen-1-one (3r)]	67.2	92.5	> 100	56
COc1cc2c(cc1OC)C(=O)/C(=C/c1cc(OC)c(OC)c(OC)c1Br)CC2 [(2E)-2-[(2-bromo-3,4,5-trimethoxyphenyl)methylidene]-6,7-dimethoxy-1,2,3,4-tetrahydronaphthalen-1-one (3u)]	4.5	> 100	> 100	2.9
COc1cc(/C=C2\CCc3ccc(Cl)cc3C2=O)c(Br)c(OC)c1OC [(2E)-2-[(2-bromo-3,4,5-trimethoxyphenyl)methylidene]-7-chloro-1,2,3,4-tetrahydronaphthalen-1-one (3l)]	> 100	48.9	> 100	> 100
COc1cc(/C=C2\CCc3ccc(F)cc3C2=O)c(Br)c(OC)c1OC [(2E)-2-[(2-bromo-3,4,5-trimethoxyphenyl)methylidene]-7-fluoro-1,2,3,4-tetrahydronaphthalen-1-one (3ad)]	> 100	89.4	10.9	1.2
COc1ccc(/C=C2\CC(C)c3ccccc3C2=O)c(Cl)c1OC (stereo not given) [(2E)-2-[(2-chloro-3,4-dimethoxyphenyl)methylidene]-4-methyl-1,2,3,4-tetrahydronaphthalen-1-one (3e)]	0.12	27.2	8.9	1.9
COc1ccc(OC)c2c1CC/C(=C\c1ccc(OC)c(OC)c1Cl)C2=O [(2E)-2-[(2-chloro-3,4-dimethoxyphenyl)methylidene]-5,8-dimethoxy-1,2,3,4-tetrahydronaphthalen-1-one (3w)]	2.4	24.7	> 100	> 100
COc1ccc(/C=C2\CCc3c(O)cccc3C2=O)c(Cl)c1OC [(2E)-2-[(2-chloro-3,4-dimethoxyphenyl)methylidene]-5-hydroxy-1,2,3,4-tetrahydronaphthalen-1-one (3h)]	> 100	> 100	> 100	48.9
COc1cccc2c1CC/C(=C\c1ccc(OC)c(OC)c1Cl)C2=O [(2E)-2-[(2-chloro-3,4-dimethoxyphenyl)methylidene]-5-methoxy-1,2,3,4-tetrahydronaphthalen-1-one (3q)]	81.2	> 100	> 100	63.7
COc1cc2c(cc1OC)C(=O)/C(=C/c1ccc(OC)c(OC)c1Cl)CC2 [(2E)-2-[(2-chloro-3,4-dimethoxyphenyl)methylidene]-6,7-dimethoxy-1,2,3,4-tetrahydronaphthalen-1-one (3t)]	27.2	> 100	> 100	5.4
COc1ccc2c(c1)CC/C(=C\c1ccc(OC)c(OC)c1Cl)C2=O [(2E)-2-[(2-chloro-3,4-dimethoxyphenyl)methylidene]-6-methoxy-1,2,3,4-tetrahydronaphthalen-1-one (3n)]	14.6	22.9	47.2	19.2
COc1ccc(/C=C2\CCc3ccc(F)cc3C2=O)c(Cl)c1OC [(2E)-2-[(2-chloro-3,4-dimethoxyphenyl)methylidene]-7-fluoro-1,2,3,4-tetrahydronaphthalen-1-one (3ac)]	> 100	> 100	17.2	2.9
COc1cccc(/C=C2\CC(C)c3ccccc3C2=O)c1Cl (stereo not given) [(2E)-2-[(2-chloro-3-methoxyphenyl)methylidene]-4-methyl-1,2,3,4-tetrahydronaphthalen-1-one (3d)]	1.9	49.9	10.2	3.2
COc1cccc(/C=C2\CCc3c(OC)ccc(OC)c3C2=O)c1Cl [(2E)-2-[(2-chloro-3-methoxyphenyl)methylidene]-5,8-dimethoxy-1,2,3,4-tetrahydronaphthalen-1-one (3v)]	13.2	> 100	> 100	> 100
COc1cccc(/C=C2\CCc3c(O)cccc3C2=O)c1Cl [(2E)-2-[(2-chloro-3-methoxyphenyl)methylidene]-5-hydroxy-1,2,3,4-tetrahydronaphthalen-1-one (3g)]	> 100	> 100	> 100	56.4
COc1cccc(/C=C2\CCc3c(OC)cccc3C2=O)c1Cl [(2E)-2-[(2-chloro-3-methoxyphenyl)methylidene]-5-methoxy-1,2,3,4-tetrahydronaphthalen-1-one (3p)]	89.5	> 100	> 100	78.9
COc1cc2c(cc1OC)C(=O)/C(=C/c1cccc(OC)c1Cl)CC2 [(2E)-2-[(2-chloro-3-methoxyphenyl)methylidene]-6,7-dimethoxy-1,2,3,4-tetrahydronaphthalen-1-one (3s)]	29.5	> 100	> 100	7.2
COc1ccc2c(c1)CC/C(=C\c1cccc(OC)c1Cl)C2=O [(2E)-2-[(2-chloro-3-methoxyphenyl)methylidene]-6-methoxy-1,2,3,4-tetrahydronaphthalen-1-one (3m)]	43.9	> 100	> 100	> 100
COc1cccc(/C=C2\CCc3ccc(F)cc3C2=O)c1Cl [(2E)-2-[(2-chloro-3-methoxyphenyl)methylidene]-7-fluoro-1,2,3,4-tetrahydronaphthalen-1-one (3ab)]	> 100	> 100	19.6	6.9
